Results published in publication PMC4158450 (Bioorganic & medicinal chemistry letters, 2014).

Legend:
hA3AR [1] = molecular target: T1, hA3AR (Homo sapiens, UniProt P0DMS8); conditions: 1S,2R diastereoisomer of 2 vs 1R,2S isomer; cited from earlier work
T1 sequence (P0DMS8 1-318): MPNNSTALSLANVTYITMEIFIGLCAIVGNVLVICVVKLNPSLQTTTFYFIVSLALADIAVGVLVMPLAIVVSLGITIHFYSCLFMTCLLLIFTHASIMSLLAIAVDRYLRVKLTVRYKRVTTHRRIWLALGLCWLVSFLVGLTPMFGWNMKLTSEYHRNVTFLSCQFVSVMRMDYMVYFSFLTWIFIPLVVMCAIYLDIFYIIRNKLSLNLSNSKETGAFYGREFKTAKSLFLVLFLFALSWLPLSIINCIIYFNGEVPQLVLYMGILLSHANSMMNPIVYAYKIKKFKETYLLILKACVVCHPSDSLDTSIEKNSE

hA2AAR = hA2AAR (Homo sapiens, UniProt P29274); experiment: hA2AAR radioligand binding
hA2AAR, sequence (P29274 whole entry): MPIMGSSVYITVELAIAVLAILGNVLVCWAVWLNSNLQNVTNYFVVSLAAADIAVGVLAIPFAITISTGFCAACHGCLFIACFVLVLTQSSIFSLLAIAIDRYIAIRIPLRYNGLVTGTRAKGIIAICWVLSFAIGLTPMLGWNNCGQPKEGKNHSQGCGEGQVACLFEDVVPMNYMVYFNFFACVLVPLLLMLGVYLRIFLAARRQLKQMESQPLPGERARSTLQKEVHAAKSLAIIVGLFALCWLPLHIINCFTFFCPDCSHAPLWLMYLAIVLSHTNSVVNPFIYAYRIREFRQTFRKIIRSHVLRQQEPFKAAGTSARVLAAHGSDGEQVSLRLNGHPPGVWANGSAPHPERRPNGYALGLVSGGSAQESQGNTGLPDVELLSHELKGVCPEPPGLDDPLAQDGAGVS

hA3AR [2] = molecular target: T1, hA3AR; experiment: hA3AR radioligand binding; conditions: in words, vs hA1AR and hA2AAR
[3] = tested on: chronic neuropathic pain (mechanoallodynia), CCI model; experiment: chronic constriction injury; type: in vivo, mouse; conditions: mice, oral administration
rA3AR = conditions: in words; cited from earlier work

In the case of O=[N+]([O-])c1cccc(C2CC2Nc2nc(C#Cc3ccccc3)nc3c2ncn3[C@@H]2O[C@H](CO)[C@@H](O)[C@H]2O)c1 (some centres unmarked) [Compound 2], the “fold more potent in binding to the hA3AR than the corresponding 1R,2S isomer” value (hA3AR [1]) is given as ~ 10 fold.

With CNC(=O)[C@@]12C[C@@H]1[C@@H](n1cnc3c(N)nc(C#Cc4ccccc4)nc31)[C@H](O)[C@@H]2O [Compound 9] the Ki (hA2AAR) was ~1 µM.

For CNC(=O)[C@@]12C[C@@H]1[C@@H](n1cnc3c(NC4CC4c4ccc(F)c(F)c4)nc(C#Cc4ccccc4)nc31)[C@H](O)[C@@H]2O (some centres unmarked) [Compound 15], the “selectivity for the A3AR” value (hA3AR [2]) was “very selective”.

With CNC(=O)[C@@]12C[C@@H]1[C@@H](n1cnc3c(N[C@@H]4C[C@H]4c4ccc(F)c(F)c4)nc(C#Cc4ccccn4)nc31)[C@H](O)[C@@H]2O [Compound 18] the “time of peak effect post-administration” value [3] was 1 h.

For OC[C@H]1O[C@@H](n2cnc3c(NC4CC4c4ccccc4)nc(C#Cc4ccccc4)nc32)[C@H](O)[C@@H]1O (some centres unmarked) [Compound 1], the “affinity at the rA3AR as compared to the hA3AR” value (rA3AR) is listed as “substantially lower affinity”.
